Assay results as given in patent publication US6358885B1, “Substituted phenylheterocyclic herbicides” (Mississippi State University, priority 1992, dated 2002).

How the values were obtained:
Japonica rice [1] = experiment: Test D paddy water application plant response rating 0 to 100; format: in vivo, Oryza sativa; conditions: 0 to 100 scale, approx. 21 days
Text: (§1) Plastic pots were partially filled with silt loam soil. The soil was then saturated with water. […] After planting, water levels were raised to 3 cm above the soil surface and maintained at this level throughout the test. Chemical treatments were formulated in a non-phytotoxic solvent and applied directly to the paddy water. Treated plants and controls were maintained in a greenhouse for approximately 21 days, after which all species were compared to controls and visually evaluated. […] A dash (-) response means no test result.

barnyardgrass [2] = experiment: as above; format: in vivo, Echinochloa crus-galli; conditions: 0 to 100 scale, approx. 21 days
Text: as §1

duck salad = experiment: as above; format: in vivo, Heteranthera limosa; conditions: 0 to 100 scale, approx. 21 days
Text: as §1

umbrella sedge = experiment: as above; format: in vivo, Cyperus difformis; conditions: 0 to 100 scale, approx. 21 days
Text: as §1

arrowhead = experiment: as above; format: in vivo, Sagittaria spp.; conditions: 0 to 100 scale, approx. 21 days
Text: as §1

waterchestnut = experiment: as above; format: in vivo, Eleocharis spp.; conditions: 0 to 100 scale, approx. 21 days
Text: as §1

Japonica rice [3] = experiment: Test E paddy water application plant response rating 0 to 100; format: in vivo, oryza sativa; conditions: Flood, 0 to 100 scale, approx. 21 days
Text: (§2) Plastic pots were partially filled with silt loam soil. […] At testing, the water level for all plantings was raised to 2 cm above the soil surface. Chemical treatments were formulated in a non-phytotoxic solvent and applied directly to the paddy water. Treated plants and controls were maintained in a greenhouse for approximately 21 days, after which all species were compared to controls and visually evaluated. […] A dash (-) response means no test result.

barnyardgrass [4] = experiment: as above; format: in vivo, Echinochloa crus-galli; conditions: Flood, 0 to 100 scale, approx. 21 days
Text: as §2

CC(C)N1C(=O)COc2cc(F)c(-c3nn4c(c3Cl)CCCC4)cc21 [Compound 31]
Japonica rice plant response rating (Japonica rice [1]; Rate 4 g/ha): 10 | Japonica rice plant response rating (Japonica rice [1]; Rate 8 g/ha): 15 | Japonica rice plant response rating (Japonica rice [1]; Rate 16 g/ha): 20 | Japonica rice plant response rating (Japonica rice [1]; Rate 32 g/ha): 25 | Japonica rice plant response rating (Japonica rice [1]; Rate 64 g/ha): 30 | Barnyardgrass 2 plant response rating (barnyardgrass [2]; Rate 4 g/ha): 0 | Barnyardgrass 2 plant response rating (barnyardgrass [2]; Rate 8 g/ha): 0 | Barnyardgrass 2 plant response rating (barnyardgrass [2]; Rate 16 g/ha): 30 | Barnyardgrass 2 plant response rating (barnyardgrass [2]; Rate 32 g/ha): 40 | Barnyardgrass 2 plant response rating (barnyardgrass [2]; Rate 64 g/ha): 60 | Duck salad plant response rating (duck salad; Rate 4 g/ha): 0 | Duck salad plant response rating (duck salad; Rate 8 g/ha): 0 | Duck salad plant response rating (duck salad; Rate 16 g/ha): 0 | Duck salad plant response rating (duck salad; Rate 32 g/ha): 0 | Duck salad plant response rating (duck salad; Rate 64 g/ha): 0 | Umbrella sedge plant response rating (umbrella sedge; Rate 4 g/ha): 0 | Umbrella sedge plant response rating (umbrella sedge; Rate 8 g/ha): 0 | Umbrella sedge plant response rating (umbrella sedge; Rate 16 g/ha): 20 | Umbrella sedge plant response rating (umbrella sedge; Rate 32 g/ha): 65 | Umbrella sedge plant response rating (umbrella sedge; Rate 64 g/ha): 75 | Arrowhead plant response rating (arrowhead; Rate 4 g/ha): 50 | Arrowhead plant response rating (arrowhead; Rate 8 g/ha): 60 | Arrowhead plant response rating (arrowhead; Rate 16 g/ha): 85 | Arrowhead plant response rating (arrowhead; Rate 32 g/ha): 100 | Arrowhead plant response rating (arrowhead; Rate 64 g/ha): 100

C#CCN1C(=O)COc2cc(F)c(-c3nn4c(c3Cl)CCCC4)cc21 [Compound 34]
Japonica rice plant response rating (Japonica rice [1]; Rate 4 g/ha): 20 | Japonica rice plant response rating (Japonica rice [1]; Rate 8 g/ha): 30 | Japonica rice plant response rating (Japonica rice [1]; Rate 16 g/ha): 55 | Japonica rice plant response rating (Japonica rice [1]; Rate 32 g/ha): 40 | Japonica rice plant response rating (Japonica rice [1]; Rate 64 g/ha): 50 | Barnyardgrass 2 plant response rating (barnyardgrass [2]; Rate 4 g/ha): 0 | Barnyardgrass 2 plant response rating (barnyardgrass [2]; Rate 8 g/ha): 10 | Barnyardgrass 2 plant response rating (barnyardgrass [2]; Rate 16 g/ha): 20 | Barnyardgrass 2 plant response rating (barnyardgrass [2]; Rate 32 g/ha): 30 | Barnyardgrass 2 plant response rating (barnyardgrass [2]; Rate 64 g/ha): 50 | Duck salad plant response rating (duck salad; Rate 4 g/ha): 0 | Duck salad plant response rating (duck salad; Rate 8 g/ha): 0 | Duck salad plant response rating (duck salad; Rate 16 g/ha): 0 | Duck salad plant response rating (duck salad; Rate 32 g/ha): 0 | Duck salad plant response rating (duck salad; Rate 64 g/ha): 60 | Umbrella sedge plant response rating (umbrella sedge; Rate 4 g/ha): 0 | Umbrella sedge plant response rating (umbrella sedge; Rate 8 g/ha): 20 | Umbrella sedge plant response rating (umbrella sedge; Rate 16 g/ha): 50 | Umbrella sedge plant response rating (umbrella sedge; Rate 32 g/ha): 70 | Umbrella sedge plant response rating (umbrella sedge; Rate 64 g/ha): 80 | Arrowhead plant response rating (arrowhead; Rate 4 g/ha): 85 | Arrowhead plant response rating (arrowhead; Rate 8 g/ha): 90 | Arrowhead plant response rating (arrowhead; Rate 16 g/ha): 90 | Arrowhead plant response rating (arrowhead; Rate 32 g/ha): 100 | Arrowhead plant response rating (arrowhead; Rate 64 g/ha): 100 | Waterchestnut plant response rating (waterchestnut; Rate 4 g/ha): 20 | Waterchestnut plant response rating (waterchestnut; Rate 8 g/ha): 20 | Waterchestnut plant response rating (waterchestnut; Rate 32 g/ha): 20 | Waterchestnut plant response rating (waterchestnut; Rate 64 g/ha): 20 | Japonica 1 plant response rating (Japonica rice [3]; Rate 16 g/ha): 75 | Japonica 2 plant response rating (Japonica rice [3]; Rate 16 g/ha): 25 | Japonica 1 plant response rating (Japonica rice [3]; Rate 32 g/ha): 85 | Japonica 2 plant response rating (Japonica rice [3]; Rate 32 g/ha): 30 | Japonica 1 plant response rating (Japonica rice [3]; Rate 64 g/ha): 95 | Japonica 2 plant response rating (Japonica rice [3]; Rate 64 g/ha): 45 | Japonica 1 plant response rating (Japonica rice [3]; Rate 125 g/ha): 98 | Japonica 2 plant response rating (Japonica rice [3]; Rate 125 g/ha): 60 | Japonica 1 plant response rating (Japonica rice [3]; Rate 250 g/ha): 100 | Japonica 2 plant response rating (Japonica rice [3]; Rate 250 g/ha): 95 | Barnyardgrass 2 plant response rating (barnyardgrass [4]; Rate 16 g/ha): 85 | Barnyardgrass 3 plant response rating (barnyardgrass [4]; Rate 16 g/ha): 35 | Barnyardgrass 2 plant response rating (barnyardgrass [4]; Rate 32 g/ha): 90 | Barnyardgrass 3 plant response rating (barnyardgrass [4]; Rate 32 g/ha): 45 | Barnyardgrass 2 plant response rating (barnyardgrass [4]; Rate 64 g/ha): 95 | Barnyardgrass 3 plant response rating (barnyardgrass [4]; Rate 64 g/ha): 45 | Barnyardgrass 2 plant response rating (barnyardgrass [4]; Rate 125 g/ha): 100 | Barnyardgrass 3 plant response rating (barnyardgrass [4]; Rate 125 g/ha): 50 | Barnyardgrass 2 plant response rating (barnyardgrass [4]; Rate 250 g/ha): 100 | Barnyardgrass 3 plant response rating (barnyardgrass [4]; Rate 250 g/ha): 95
